Several values for one entry are separate records, joined by “and”; a condition that tells them apart may be missing. Identical values can stand only once. Like-named read-outs stand apart in the source and are kept apart here.
Key:
[1] = target: Myeloid Cell Leukemia 1 (Mcl-1) (Homo sapiens, UniProt Q07820); assay: biochemical; type: binding; conditions: HTRF Ki (nM)
[2] = tested on: MOLP8 cell line; assay: MOLP8 CellEvent Caspase-3/7 Green live-cell IncuCyte apoptosis assay; type: cell-based, human; conditions: MOLP8 cells, averaged values
Procedure: (§1) MCL-1 is a regulator of apoptosis and is highly over-expressed in tumor cells that escape cell death. The assay evaluates the cellular potency of small-molecule compounds targeting regulators of the apoptosis pathway, primarily MCL-1, Bfl-1, Bcl-2, and other proteins of the Bcl-2 family. Protein-protein inhibitors disrupting the interaction of anti-apoptotic regulators with BH3-domain proteins initiate apoptosis.
Activation of the apoptotic pathway was measured using the CellEvent™ Caspase-3/7 Green ReadyProbes™ Reagent (Thermo Fisher C10423, C10723). This assay produces a green fluorescent stain in cells that enter the apoptosis pathway. CellEvent® Caspase-3/7 Green reagent is a four amino acid peptide (DEVD) conjugated to a nucleic acid-binding dye that is non-fluorescent when not bound to DNA. The CellEvent® Caspase-3/7 Green reagent is intrinsically non-fluorescent, as the DEVD peptide inhibits binding of the dye to DNA. Upon activation of caspase-3/7 in apoptotic cells, the DEVD peptide is cleaved and the free dye can bind DNA, generating a bright green fluorescence. The activation of Caspase-3 and Caspase-7 is downstream of inhibition of MCL-1 or other apoptosis inhibiting proteins in cell lines that are dependent on them.
The live-cell readout on the IncuCyte permits tracking over time of the Caspase activation. […] The IncuCyte readout also allows one to normalize for cell number, as the suspension cells are hard to distribute evenly.
Signals were measured every 2 h for a duration of 22 h. The ratio of the Caspase mask to the Confluence mask, per image, as raw data, was calculated and the kinetic trace for every well was exported to Genedata Screener for analysis.
In Genedata Screener values for 6 h, 12 h, and 22 h from the kinetic traces were extracted. The values were normalized against negative controls (untreated cells). A standard dose-response analysis was performed on the normalized data.
The following data was reported at each of the following three aforementioned time points: (a) The dose-response curve, (b) The qAC50 and qAC50 Mode, and (c) Max Activity.
Cells were maintained in culture medium containing 10% Heat Inactivated (HI) FBS, 2 mM L-Glutamine and 50 μg/mL Gentamycin phenol red free RPMI-1640. Cells were split at 0.4 million/mL twice a week.
On Day 1, plates containing individual wells with test compounds at 10 mM concentration, 150 nL per well. The final concentrations range from […] compound (and no compound control) and compounds were thawed at room temperature for 1 hour. 25 μl of prewarmed medium was added into each well by multidrop (column 1, 3-22, 24), followed by addition of DMSO control (0.6% DMSO) in column 2. The plate was sealed using Breathe-Easy® sealing membrane and shaken for 30 min at room temperature to dissolve the test compound(s) in medium. The plate was then kept in the incubator for 1 hour at 37° C., 5% CO2.
MOLP8 cells in medium at […] (20000/50 μl final in assay) were prepared with CellEvent™ Caspase-3/7 Green Detection Reagent at 4 μM (2 μM final in assay). Once prepared, the cells were added to the test compound plate in an amount of 20000 and the plate was immediately placed in the IncuCyte and imaging started using following settings: 10× objective, 2 s exposure time in green channel, interval of 2 h, acquisition stopped after 22 h.
For analysis in IncuCyte, a Basic Analysis protocol was defined to calculate the “confluence” and “caspase” areas from the “Phase” and “green” images, respectively, as follows: (a) Confluence: Segmentation Adjustment 1, Hole Fill 0, Adjust Size −2, No filters (b) Caspase: Top-Hat segmentation, Radius 10, Threshold 0.3 GCU, Edge Split On with sensitivity 0, Hole Fill 0, Adjust Size 1, and filter on a minimum Area of 20 μm^2. The analyzer is trained on a sufficient number of positive and negative control wells, as well as compound treated wells, verifying that the “confluence” layer detects both live and dead (condensed) cells. […]

[3] = tested on: MOLP-8 human multiple myeloma cell line; assay: MOLP8 Caspase-Glo 3/7 luminescent assay; type: cell-based; conditions: averaged over all runs on all batches
From the text: as §1
The Caspase-Glo® 3/7 Assay is a luminescent assay that measures caspase-3 and -7 activities in purified enzyme preparations or cultures of adherent or suspension cells. The assay provides a proluminescent caspase-3/7 substrate, which contains the tetrapeptide sequence DEVD. This substrate is cleaved to release aminoluciferin, a substrate of luciferase used in the production of light. Addition of the single Caspase-Glo® 3/7 Reagent in an “add-mix-measure” format results in cell lysis, followed by caspase cleavage of the substrate and generation of a “glow-type” luminescent signal.
This assay uses the MOLP-8 human multiple myeloma cell line, which is sensitive to MCL-1 inhibition.
Cell cultures were maintained between 0.2 and 2.0×10^6 cells/mL. The cells were harvested by collection in 50 mL conical tubes. The cells were then pelleted at 500 g for 5 mins before removing supernatant and resuspension in fresh pre-warmed culture medium. The cells were counted and diluted as needed.
The assay reagent was prepared by transferring the buffer solution to the substrate vial and mixing. The solution may be stored for up to 1 week at 4° C. with negligible loss of signal.
Compounds were delivered in assay-ready plates (Proxiplate) and stored at −20° C.
Assays always include 1 reference compound plate containing reference compounds. The plates were spotted with 40 nL of compounds (0.5% DMSO final in cells; serial dilution; 30 μM highest conc. 1/3 dilution, 10 doses, duplicates). The compounds were used at room temperature and 4 μL of pre-warmed media was added to all wells except column 2 and 23. The negative control was prepared by adding 1% DMSO in media. The positive control was prepared by adding the appropriate positive control compound in final concentration of 60 μM in media. The plate was prepared by adding 4 μL negative control to column 23, 4 μL positive control to column 2 and 4 μL cell suspension to all wells in the plate. The plate with cells was then incubated at 37° C. for 2 hours. The assay signal reagent is the Caspase-Glo solution described above, and 8 μL was added to all wells. The plates were then sealed and measured after 30 minutes.
The activity of a test compound was calculated as percent change in apoptosis induction as follows: […]

[4] = read-out: MOLP8 Caspase 3/7 AC50 at 6 h, 6 h
[5] = read-out: MOLP8 Caspase 3/7 AC50 at 12 h, 12 h
[6] = read-out: MOLP8 Caspase 3/7 AC50 at 22 h, 22 h
[7] = MOLP8 cells, 2 hours incubation, read-out: MOLP8 Caspase-Glo AC50

Sequence of Myeloid Cell Leukemia 1 (Mcl-1) (Q07820 whole entry): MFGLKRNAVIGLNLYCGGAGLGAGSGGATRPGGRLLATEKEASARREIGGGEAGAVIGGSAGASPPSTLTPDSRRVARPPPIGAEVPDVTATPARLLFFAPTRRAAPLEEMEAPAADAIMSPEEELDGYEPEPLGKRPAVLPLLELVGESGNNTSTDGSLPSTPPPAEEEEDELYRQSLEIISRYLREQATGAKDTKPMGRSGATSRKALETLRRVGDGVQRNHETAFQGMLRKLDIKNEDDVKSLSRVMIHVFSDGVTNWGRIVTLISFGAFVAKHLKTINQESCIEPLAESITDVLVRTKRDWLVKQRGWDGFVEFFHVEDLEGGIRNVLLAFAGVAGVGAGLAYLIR

SMILES | Ki [1] | AC50 [2, 4] [nM] | AC50 [2, 5] [nM] | AC50 [2, 6] [nM] | AC50 ([3]; read-out: MOLP8 Caspase-Glo AC50, MOLP8 cells, 2 hours incubation) [nM] | AC50 [3, 7] [nM] | AC50 ([3]; Homo sapiens, MOLP-8, 2 h, MOLP8 cells, 2 hours incubation, read-out: MOLP8 Caspase-Glo AC50) [nM] | AC50 ([3]; Homo sapiens, MOLP-8, 2 h, read-out: MOLP8 Caspase-Glo AC50 (nM), MOLP8 cells, 2 hours incubation) [nM]
COCCn1nc2c(c1C)-c1c(Cl)ccc3c(c(C(=O)O)n(C)c13)CCCOc1cc(cc3ccccc13)SCc1cc(nn1C)CN(C)C2 (single isomer, unassigned) [Compound 28] | 9.8 nM and 9.39 nM | ~20700 | 13400 | 11400 | 5400 | – | – | –
COCCOCCn1nc(C)c2c1CN(C)Cc1cc(n(C)n1)CSc1cc(c3ccccc3c1)OCCCc1c(C(=O)O)n(C)c3c-2c(Cl)ccc13 (single isomer, unassigned) [Compound 29] | 0.06 nM and 0.03 nM | 60 | 62 | 60 | – | 23 | – | –
COCCOCCn1nc(C)c2c1CN(C)Cc1cc(n(C)n1)CSc1cc(c3ccccc3c1)OCCCc1c(C(=O)O)n(C)c3c-2c(Cl)ccc13 (single isomer, unassigned) [Compound 30] | 0.81 nM and 0.75 nM | 2010 | 2140 | 2230 | – | 971 | – | –
COCCOCCn1nc2c(c1C)-c1c(Cl)ccc3c(c(C(=O)O)n(C)c13)CCCOc1cc(cc3ccccc13)SCc1cc(nn1C)CN(C)C2 (single isomer, unassigned) [Compound 31] | 0.04 nM and 0.03 nM | 160 | 160 | 160 | – | 39 | – | –
COCCOCCn1nc2c(c1C)-c1c(Cl)ccc3c(c(C(=O)O)n(C)c13)CCCOc1cc(cc3ccccc13)SCc1cc(nn1C)CN(C)C2 (single isomer, unassigned) [Compound 32] | 7.44 nM and 8.51 nM | ~27500 | ~21500 | ~20000 | – | 12100 | – | –
Cc1nn(CCCN2CCOCC2)c2c1-c1c(Cl)ccc3c(c(C(=O)O)n(C)c13)CCCOc1cc(cc3ccccc13)SCc1cc(nn1C)CN(C)C2 (single isomer, unassigned) [Compound 33] | 0.03 nM | 300 | 240 | 340 | – | 94 | – | –
Cc1nn(CCCN2CCOCC2)c2c1-c1c(Cl)ccc3c(c(C(=O)O)n(C)c13)CCCOc1cc(cc3ccccc13)SCc1cc(nn1C)CN(C)C2 (single isomer, unassigned) [Compound 34] | 0.47 nM and 0.68 nM | 2250 | 2540 | 2320 | – | 1000 | – | –
Cc1c2c(nn1CCCN1CCOCC1)CN(C)Cc1cc(n(C)n1)CSc1cc(c3ccccc3c1)OCCCc1c(C(=O)O)n(C)c3c-2c(Cl)ccc13 (single isomer, unassigned) [Compound 36] | 1.34 nM and 2.06 nM | 6140 | 5770 | 4290 | – | – | 2820 | –
Cc1c2c(nn1CCO)CN(C)Cc1cc(n(C)n1)CSc1cc(c3ccccc3c1)OCCCc1c(C(=O)O)n(C)c3c-2c(Cl)ccc13 (single isomer, unassigned) [Compound 38] | 0.7 nM and 0.48 nM | 5490 | 5390 | 5160 | – | – | – | 3050

— patent US20230021562A1, “[…] D[…]-1 INHIBITORS” (priority 2019, published 2023)
